Test results as given in US11331328B2, “Compositions and methods for inhibiting antiapoptotic Bcl-2 proteins as anti-aging agents” (priority 2014, dated 2022).
Read-outs that look alike come from different tables or passages of the source. Peptide text beside a SMILES is read from it. * marks the point of attachment. Cbz = O=C(OCc1ccccc1)*

Key:
[1] = tested on: IR-induced senescent WI-38 cells (SC); assay: Cell viability (PI flow cytometry), LD50 in IR-induced senescent WI-38 cells; type: cell-based, human; settings: for LD50 Ratio (NC/SC): non-senescent vs IR-induced senescent WI-38 cells
Experimental: (§1) Mouse embryonic fibroblasts (MEF) were isolated from mouse embryos as described^1. All cells were cultured in a complete medium (CM) (Dulbecco's Modified Eagle Medium supplemented with 10% fetal bovine serum [FBS], 100 U/ml penicillin, and 100 μg/ml streptomycin [all from Atlanta Biologicals, Norcross, Ga., and USA]) in a humidified incubator at 37° C. and 5% CO2. Low passages of WI-38 cells (<25), IMR-90 (<25), REC cells (<25) and MEF (<3) were used as non-senescent controls or for induction of senescence to avoid replicative senescence. […] To induce senescence by expression of oncogenic Ras (Ras^V12), WI-38 cells were infected with the retroviruses pBabe-H-Ras or pBabe-puro (control) (Addgene, Cambridge, Mass., UAS)^2, 3. […] Senescent cells were maintained in culture for a few days, changing the culture medium every 3 days until use. For in vitro cell culture experiments, we usually repeated the experiments for at least three times to ensure the reproducibility of the data. In addition, the repeats of the experiments for three times will allow us to obtain 3 independent observations for statistical analysis.
(§2) Flow cytometry: Non-senescent and senescent cells were seeded into wells of 24- or 48-well at about 70% of confluence. […] Both quiescent non-senescent cells and permanently growth arrested senescent cells were treated with vehicle (0.1% DMSO or PBS) or increasing concentrations of the compounds listed in Table 1 for various durations. […] After incubated with propidium iodide (PI 100 ng/ml) in PBS at room temperature for 1 min, cells were centrifuged at 1200 rpm for 6 min and then resuspended in PBS with 2% of FBS for analysis by a BD LSR II flow cytometer (BD Biosciences, San Jose, Calif., USA). Viable cells (PI^− cells) were numerated by flow cytometry at a constant flow rate and calculated as a percentage of control cells treated with vehicle using the formula: percentage of control=(Ndrug/NC)×100, where Ndrug and NC represent the absolute number of PI^− viable cells of drug-treated and vehicle-treated cells, respectively.
(§3) MTT (3-[4,5-dimethylthiazol-2-yl]-2,5 diphenyl tetrazolium bromide) assay: Cells were harvested, washed and resuspended in CM and added to wells of 24- or 48-well plates as described above. […] After 4 h at 37° C., the formazan was solubilized by lysing the cells with 300 μl of DMSO. Absorbance of formazan was measured at 595 nm using a Microplate Reader (BioTek, Winooski, Vt., USA). Cell viability was calculated in the method as previously described^4.
(§4) Trypan blue exclusion assay: Cells were harvested, washed and resuspended in CM and added to wells of a 6-well plate as described above. […] Living cells stained negative for trypan blue and were counted under light microscopy.
(§5) Briefly, Probit (set as y) was determined by looking up their correspondence to the % responded in Finney's table. The log of the compound concentrations was used as x. By fitting a line of regression, we produce the formula y=ax+b.

[2] = tested on: non-senescent WI-38 cells (NC); assay: Cell viability (PI flow cytometry), LD50 in non-senescent WI-38 cells; type: cell-based, human
Experimental: as §1, §2, §3, §4, §5

[3] = tested on: senescent cells in TBI p16-3MR mice; assay: Senescent cell clearance in TBI p16-3MR mice (luminescence, p16 mRNA); type: in vivo, mouse; settings: 6 Gy TBI; 2 treatment cycles
Experimental: ABT was given by gavage at 50 mg/kg/d for 7 d per cycle for 2 cycles with a 2-wk interval. GCV was given to the mice by ip injection at 25 mg/kg/d for 5 d per cycle for 2 cycles with a 2-wk interval. […] The mice were euthanized the day after the imaging by CO2 inhalation and followed by cervical dislocation. Tissues were harvested for immediate tissue luminescence imaging as described below or RNA extraction for analyses of p16, IL-1α, CCL-5, and CXCL-10 mRNA levels by qRT-PCR.
For in vivo luminescence, mice were injected i.p. with 250 μl of Xenolight RediJect Coelenterazine h (100 μg/mL, Calipers-PerkinElmer, Waltham, Mass., USA). The mice were anesthetized with 4% isoflurane gas at 1 L/minute oxygen flow 5 min after the injection. Luminescence images were acquired using a Xenogen IVIS-200 Optical In Vivo imaging System equipped with a Living Image Version 4.3.1 (Caliper Life Sciences, Hopkinton Mass., USA). Mice were oriented in a supine position in the scanner. […]
For tissue luminescence imaging, after harvested from euthanized mice, tissues were immediately soaked in pre-warmed (37° C.) PBS with 2% FBS and 1:10 dilution of Xenolight RediJect Coelenterazine h for 10 min. They were transferred into a new 35-mm dish and luminescence images were taken 12-15 min after soaking in the substrate solution using a Xenogen IVIS-200 Optical In Vivo imaging System. […]

[4] = tested on: wild-type or p16-3MR mice; settings: at the doses used; cited from earlier work
[5] = tested on: IL-1α, TNFα, CCL-5, CXCL-10 mRNA; assay: SASP mRNA levels in lungs of TBI p16-3MR mice (qRT-PCR); type: in vivo, mouse; settings: 6 Gy TBI; 2 treatment cycles
Experimental: To measure p21 and GAPDH mRNA levels in WI-38 cells and IL-1α, TNFα, CCL-5, and CXCL-10 mRNA levels in mouse tissues, SYBR assay kit was used (Applied biosystems in life technologies). Briefly, 1 μl cDNA was mixed with 7.5 μl SYBR Green PCR Master Mix and 0.2 μl of primers (Table 5). Samples were then added with 6.30 μl of H2O to give a total 15 μl of mixture. qPCR conditions were as follows: 95° C. for 10 min, 40×(95° C. for 15 s and 60° C. for 1 min), 95° C. for […], 95° C. for 15 min. All reactions were run in triplicate on an ABI StepOnePlus Real-Time PCR System.

[6] = Homo sapiens, WI-38 fibroblasts, IR-induced senescent, LD50 by Probit Analysis, read-out: LD50 (μM) for senescent cells (SC)
[7] = Homo sapiens, WI-38 fibroblasts, non-senescent, LD50 by Probit Analysis, read-out: LD50 (μM) for non-senescent cells (NC)
[8] = WI-38 fibroblasts, IR-induced senescent, LD50 by Probit Analysis, read-out: LD50 (μM) for senescent cells (SC)
[9] = WI-38 fibroblasts, non-senescent, LD50 by Probit Analysis, read-out: LD50 (μM) for non-senescent cells (NC)
[10] = Homo sapiens, WI-38, read-out: LD50 (μM) for senescent cells (SC)
[11] = Homo sapiens, WI-38, read-out: LD50 (μM) for non-senescent cells (NC)

Row | Molecule | IC50 [1, 6] [µM] | LD50 Ratio (NC/SC) [1] | CC50 [2, 7] [µM] | IC50 [1, 8] [µM] | CC50 [2, 9] [µM] | further results
1 | O=CC[C@@H](O)[C@H](O)[C@H](O)CO [2-Deoxy-D-glucose] | 8890 | 0.5 | 4800 |  |  | 
2 | O=C(O)C(=O)CBr [3-bromopyruvate] |  | 0.8 |  | 370.00 | 280.00 | 
3 | CC1(C)CCC(CN2CCN(c3ccc(C(=O)NS(=O)(=O)c4ccc(NCC5CCOCC5)c([N+](=O)[O-])c4)c(Oc4cnc5[nH]ccc5c4)c3)CC2)=C(c2ccc(Cl)cc2)C1 [ABT199] | > 10 |  | > 10 |  |  | selective killing of SCs (viable WI-38 cells, NC vs IR-SC) ([1]; 5 μM ABT199, 0.5 μM WEHI539, or both, 72 h): did not selectively kill SCs
4 | CC(=O)OC[C@H]1O[C@@H]([S-])[C@H](OC(C)=O)[C@@H](OC(C)=O)[C@@H]1OC(C)=O.CCP(CC)CC.[Au+] [Auranofin] |  | 1.0 |  | 5.34 | 5.13 | 
5 | Cc1ccc2nc(NCCN)c3ncc(C)n3c2c1 [BMS345541] | 10.8 | 0.6 | 6.87 |  |  | 
6 | CC(C)C[C@H](NC(=O)[C@H](Cc1ccccc1)NC(=O)c1cnccn1)B(O)O [Bortzomib] |  | 0.7 |  | 0.024 | 0.016 | 
7 | CCCCS(=N)(=O)CCC(N)C(=O)O (stereo not shown) [Buthionine sulfoximine] | 2390 | 1.0 | 2340 |  |  | 
8 | O=C(O)CCCCC(CCSCc1ccccc1)SCc1ccccc1 (stereo not shown) [CPI-613] | 205 | 1.1 | 223 |  |  | 
9 | CCCCCCCCCC[P+](c1ccccc1)(c1ccccc1)c1ccccc1 [Decyl-triphenylphosphonium] |  | 1.4 |  |  |  | IC50 [1, 10]: 0.98 µM; CC50 [2, 11]: 1.41 µM
10 | C[C@]12CC[C@H](O)CC1=CC[C@@H]1[C@@H]2CC[C@]2(C)C(=O)CC[C@@H]12 [Dehydroepiandrosterone] | 510 | 0.6 | 296 |  |  | 
11 | CNCCCN1c2ccccc2CCc2ccccc21 [Despramine] |  | 1.0 |  | 51.13 | 50.03 | 
12 | CS[C@H]1SC[C@H]2C(=O)N(C)[C@@H](C(C)C)C(=O)OC[C@@H](NC(=O)c3cnc4ccccc4n3)C(=O)N[C@@H](C)C(=O)N(C)[C@@H]1C(=O)N(C)[C@@H](C(C)C)C(=O)OC[C@@H](NC(=O)c1cnc3ccccc3n1)C(=O)N[C@@H](C)C(=O)N2C [Echinomycin] |  | 0.2 |  |  |  | IC50 [1, 10]: 2.86 µM; CC50 [2, 11]: 0.42 µM
13 | Nc1nc(O)c2ncn(COC(CO)CO)c2n1 [GCV, ganciclovir] |  |  |  |  |  | SCs in lungs (luminescence, p16 mRNA) [3]: reduced IR-induced SCs; toxicity to mice [4]: non-toxic to wild-type or p16-3MR mice; SASP in lungs [5]: suppressed the SASP induced by TBI
14 | OO [Hydrogen peroxide] | 231 | 0.58 | 135 |  |  | 
15 | C=CCNc1c(O)cc2c(O)c1C[C@@H](C)C[C@H](OC)[C@H](O)[C@@H](C)/C=C(\C)[C@H](OC(N)=O)[C@@H](OC)/C=C\C=C(/C)C(=O)N2 [IPI-504] |  | 0.2 |  |  |  | IC50 [1, 10]: 0.93 µM; CC50 [2, 11]: 0.14 µM
16 | O=c1cc(-c2cccc3c2Sc2ccccc2S3)oc(N2CCOCC2)c1 [KU55933] | 30.7 | 0.2 | 5.1 |  |  | 
17 | CC(C)C[C@@H](C=O)NC(=O)[C@H](CC(C)C)NC(=O)[C@H](CC(C)C)NC(=O)OCc1ccccc1 [MG132] (Cbz-Leu-Leu-Leu-aldehyde) |  | 0.1 |  |  |  | IC50 [1, 10]: 1.92 µM; CC50 [2, 11]: 0.24 µM

Row | Molecule | IC50 [1, 6] [µM] | LD50 Ratio (NC/SC) [1] | CC50 [2, 7] [µM] | IC50 [1, 8] [µM] | CC50 [2, 9] [µM] | further results
18 | Cc1csc(=NC2CCCCC2)n1/N=C/c1ccc(O)c(O)c1O [MIM1] |  | 1.0 |  | >50.00 | >50.00 | 
19 | O=c1cc(N2CCOCC2)oc2c1ccc1ccccc12 [NU7026] |  | 0.7 |  | 64.03 | 47.02 | 
20 | COc1ccc(C2=N[C@@H](c3ccc(Cl)cc3)[C@@H](c3ccc(Cl)cc3)N2C(=O)N2CCNC(=O)C2)c(OC(C)C)c1 [Nutlin3] |  | 0.1 |  | 82.16 | 5.62 | 
21 | S=C=NCCc1ccccc1 [Phenethyl isothiocyanate (PEITC), Phenethyl isothiocyanate] | > 10 | <1.0 | < 10 |  |  | 
22 | CC1=CC(=O)c2c(O)cccc2C1=O [Plumbagin] | 8.7 | 1.5 | 12.6 |  |  | 
23 | CCCCCCCCCCCCC/C=C/[C@@H](O)[C@@H](N)CO[C@@H]1O[C@H](CO)[C@H](O)[C@H](O)[C@H]1O [Psychosine] |  | 0.9 |  | 52.25 | 46.32 | 
24 | CO[C@H]1C[C@@H]2CC[C@@H](C)[C@@](O)(O2)C(=O)C(=O)N2CCCC[C@H]2C(=O)O[C@H]([C@H](C)C[C@@H]2CC[C@@H](O)[C@H](OC)C2)CC(=O)[C@H](C)/C=C(\C)[C@@H](O)[C@@H](OC)C(=O)[C@H](C)C[C@H](C)/C=C/C=C/C=C/1C [Rapamycin] |  | 1.0 |  |  |  | IC50 [1, 10]: > 0.04 µM; CC50 [2, 11]: > 0.04 µM
25 | Oc1ccc(-c2nc(-c3ccncc3)c(-c3ccc(F)cc3)[nH]2)cc1 [SB202190] | > 800 |  | > 800 |  |  | 
26 | NCCCNCCCCNCCCN [Spermine] | > 40 |  | > 40 |  |  | 
27 | CC(C)(C)c1ccc(C(O)CCCN2CCC(C(O)(c3ccccc3)c3ccccc3)CC2)cc1 (stereo not shown) [Terfenadine] | 6.87 | 0.9 | 6.13 |  |  | 
28 | CC(/C=C/C(=O)NO)=C\[C@@H](C)C(=O)c1ccc(N(C)C)cc1 [Trichostatin A(TSA), Trichostatin A] |  | 1.87 |  | 0.39 | 0.72 | 
29 | O=C(CCCCCCC(=O)Nc1ccccc1)NO [Vorinostat(SAHA), Vorinostat] | 2.21 | 0.38 | 0.85 |  |  | 
30 | COc1c(O)cc(O)c2c(=O)cc(-c3ccccc3)oc12 [Wogonin] |  | 1.0 |  |  |  | IC50 [1, 10]: > 200 µM; CC50 [2, 11]: > 200 µM
31 | COCCn1c2c([n+](Cc3cnccn3)c1C)C(=O)c1ccccc1C2=O [YM-155] | 50 | 1.6 | 78.4 |  |  | 
32 | Arsenic trioxide |  | 0.9 |  | 18.26 | 15.65 | 
33 | Balifomycin A1 |  | 1.3 |  | 22.11 | 29.71 | 
